Results published in patent publication US7910747B2, “Phosphonate and phosphinate pyrazolylamide glucokinase activators” (Bristol-Myers Squibb Company, priority 2006, dated 2011).

Assays:
human glucokinase (GK) = molecular target: T1, human glucokinase (GK) (Homo sapiens, UniProt P35557); test: Glucokinase tandem enzymatic assay; type: biochemical; conditions: 12 mM glucose; for EC50: EC50 = concentration to achieve 50% of full activation; for Emax: expressed as % of basal activation, EC50 could not be calculated from the activation curves, read-out: Maximal activation (%) Human Glucokinase @ 12 mM Glucose
T1 construct: Full-length human hepatic GK (untagged) was expressed in BL21 STAR (DE3)pLysS cells; made in house; host or cells: E. coli BL21 STAR (DE3)pLysS
T1 sequence (P35557 1-466 isoform P35557-2): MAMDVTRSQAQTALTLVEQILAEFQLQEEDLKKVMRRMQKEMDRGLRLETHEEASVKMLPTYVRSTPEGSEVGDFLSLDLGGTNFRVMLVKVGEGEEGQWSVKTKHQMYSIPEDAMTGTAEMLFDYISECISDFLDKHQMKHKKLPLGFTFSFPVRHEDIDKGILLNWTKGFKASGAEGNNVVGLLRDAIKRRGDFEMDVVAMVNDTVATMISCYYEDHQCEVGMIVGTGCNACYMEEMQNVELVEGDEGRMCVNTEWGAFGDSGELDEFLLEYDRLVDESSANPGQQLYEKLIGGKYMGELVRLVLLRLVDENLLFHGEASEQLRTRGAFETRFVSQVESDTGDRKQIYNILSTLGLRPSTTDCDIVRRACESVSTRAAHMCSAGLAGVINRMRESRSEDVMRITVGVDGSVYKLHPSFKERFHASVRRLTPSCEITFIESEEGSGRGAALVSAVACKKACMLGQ
Description: Enzymatic activity of human glucokinase (GK) was measured by incubating GK, ATP, and glucose for discrete time periods followed by quenching with EDTA (ethylenediamine tetra-acetic acid). Relative amounts of product glucose-6-phosphate (G6P) were measured by then running a detection assay using G6P dehydrogenase and measuring the conversion of ThioNAD (thio-nicotinamide adenine dinucleotide) to ThioNADH (thio-dihydronicotinamide adenine dinucleotide) at a wavelength of 405 nm. This ‘uncoupled’ enzymatic reaction is denoted as the GK ‘tandem’ assay. Activation of GK by compounds can be assessed using this assay. The GK tandem assay protocol described below was followed using a range of activator compound concentrations from 0 to 100 μM at 5 and 12 mM of glucose. […] To initiate the GK reaction, magnesium-ATP (3 mM final concentration) was added to GK in buffer (final buffer conditions of 25 mM HEPES buffer, pH 7.1, containing 1 mM dithiothreitol and 5% DMSO). The total reaction volume was 20 μL. The reaction was allowed to proceed for ten minutes and was then quenched with 5 μL EDTA; 45 mM final). […] Absorbance was read, background glucose-6-phosphate levels were subtracted, after which activation was calculated as a percentage of control activity. Control activity was determined using GK in the presence of vehicle (DMSO), with background glucose-6-phosphate subtracted. Background glucose-6-phosphate was determined by pre-quenching GK with EDTA prior to reaction initiation with ATP.
Full-length human hepatic GK (untagged) was expressed in BL21 STAR (DE3)pLysS cells (Invitrogen) at 25° C. as described by Mookhtiar et al. (1). The protein was purified essentially as described by Lange (2) with a slight modification. […] The resulting pellet was resuspended in buffer, dialyzed, and applied directly to a Q-Sepharose (Sigma) column followed by elution with a linear 100-600 mM KCl gradient. GK containing fractions were pooled, dialyzed overnight vs. 25 mM Hepes pH 7.2/1 mM MgCl2/1 mM EDTA/0.1 M KCl/1 mM DTT, then dialyzed again with same buffer with 10% glycerol added.

[1] = tested on: male DIO (diet-induced obese) C57BL/6J mice; test: Oral glucose tolerance test (OGTT) in DIO mice; type: in vivo; conditions: 60 min before 2 g/kg oral glucose, DIO C57BL/6J mice; for Reduction in Glucose AUC at 30 mg/kg dose: 30 mg/kg oral
Description: […]. Mice were fasted overnight before use for experiments. A test compound or vehicle (either: 1) 40% PEG 400+10% Cremophore +50% water or 2) 10% dimethyl acetamide +10% ethanol +10% Cremophore +70% water) was given orally 60 min before oral administration of a glucose solution at a dose of 2 g/kg body weight (oral glucose tolerance test; OGTT). […].

Row | SMILES | EC50 (human glucokinase (GK)) | also measured
1 | COC[C@H](C)Oc1cc(Oc2ccc(S(C)(=O)=O)cc2)cc(C(=O)Nc2nc(CP(C)(=O)O)cs2)c1 [Example 56] | 534 nM | –
2 | CCOP(=O)(Cc1csc(NC(=O)c2cc(O[C@@H](C)COC)cc(O[C@@H](C)Cc3ccccc3)c2)n1)OCC [Example 145] | 24 nM | Reduction in Glucose AUC at 30 mg/kg dose [1]: 71%
3 | CCOP(=O)(Cc1csc(NC(=O)Cc2ccc(OC)cc2OC)n1)OCC [Example 74] | – | Emax (human glucokinase (GK)): 142%
4 | CCOP(=O)(Cc1csc(NC(=O)c2cc(OC(C)C)cc(O[C@H]3CCN(S(C)(=O)=O)C3)c2)n1)OCC [Example 113] | 437 nM | –
5 | CCOP(=O)(Cc1cnc(NC(=O)[C@H](CC2CCOCC2)c2ccc(S(=O)(=O)C3CC3)cc2)cn1)OCC [Example 44] | 564 nM | Reduction in Glucose AUC at 30 mg/kg dose [1]: 62-80%
6 | CCOP(=O)(Cc1csc(NC(=O)c2cc(OCCSC)cc(O[C@@H](C)COC)c2)n1)OCC [Example 134] | 476 nM | –
7 | CCOP(=O)(Cc1nc(NC(=O)c2cc(Oc3ccc(S(C)(=O)=O)cc3)cc(O[C@@H](C)COC)c2)sc1Cl)OCC [Example 50] | 22 nM | –
8 | CCOP(=O)(Cc1csc(NC(=O)c2cc(CN3CCOC3=O)cc(OC)c2)n1)OCC [Example 65] | – | Emax (human glucokinase (GK)): 162%
9 | CCOP(=O)(Cc1csc(NC(=O)c2cc(O[C@@H](C)CO)cc(O[C@@H](C)Cc3ccccc3)c2)n1)OCC [Example 137] | 21 nM | –
10 | CCOP(=O)(/C=C/c1cnc(NC(=O)[C@H](CC2CCCC2)c2ccc(S(C)(=O)=O)cc2)s1)OCC [Example 35] | – | Emax (human glucokinase (GK)): 133%
11 | CCOP(=O)(CSc1cnc(NC(=O)[C@H](CC2CCCC2)c2ccc(S(C)(=O)=O)cc2)s1)OCC [Example 22] | 402 nM | –
12 | CCOP(=O)(Cc1csc(NC(=O)c2cc(OCC(O)c3ccccc3)cc(OC(C)C)c2)n1)OCC (centres unmarked) [Example 121] | – | Emax (human glucokinase (GK)): 126%
13 | CCOP(=O)(Cc1ccc(NC(=O)c2cc(Oc3ccc(S(C)(=O)=O)cc3)cc(O[C@@H](C)COC)c2)nc1)OCC [Example 29] | 98 nM | Reduction in Glucose AUC at 30 mg/kg dose [1]: 66-78%
14 | CCOP(=O)(CS(=O)(=O)c1cnc(NC(=O)[C@H](CC2CCCC2)c2ccc(S(C)(=O)=O)cc2)s1)OCC [Example 23] | – | Emax (human glucokinase (GK)): 150%
15 | CCOP(=O)(Cn1ccc(NC(=O)c2cc(OCC(F)(F)c3ccccc3)cc(OC(C)C)c2)n1)OCC [Example 122] | 23 nM | –
16 | CCOP(=O)(Cn1ccc(NC(=O)c2cc(Oc3ccc(S(C)(=O)=O)cc3)cc(O[C@@H](C)COC)c2)n1)OCC [Example 32] | 65 nM | Reduction in Glucose AUC ([1]; 30 μmol/kg oral): 79% @ 30 μmol/kg
17 | CCOP(=O)(Cc1nc(NC(=O)c2cc(Oc3ccc(S(C)(=O)=O)cc3)cc(O[C@@H](C)COC)c2)sc1Br)OCC [Example 51] | 15 nM | –
18 | CCO[P@](C)(=O)Cc1csc(NC(=O)c2cc(Oc3ccc(S(C)(=O)=O)cc3)cc(O[C@@H](C)COC)c2)n1 (single isomer, unassigned) [Example 54] | 49 nM | Reduction in Glucose AUC at 30 mg/kg dose [1]: 68-82%
19 | CCOP(=O)(Cn1ccc(NC(=O)c2cc(O[C@@H](C)COC)cc(O[C@@H](C)Cc3ccccc3)c2)n1)OCC [Example 33] | 26 nM | –
20 | CCOP(=O)(Cc1csc(NC(=O)c2cc(OC(C)C)cc(O[C@@H]3CCN(C(=O)OC)C3)c2)n1)OCC [Example 116] | 469 nM | –
21 | CCOP(=O)(Cc1csc(NC(=O)c2cc(Oc3ccc(S(C)(=O)=O)cc3)cc(O[C@@H](C)COC)c2)n1)OCC [Example 37] | 34 nM | Reduction in Glucose AUC at 30 mg/kg dose [1]: 88%
22 | CCOP(=O)(Cc1csc(NC(=O)c2cc(OCCCS(C)(=O)=O)cc(O[C@@H](C)COC)c2)n1)OCC [Example 139] | 467 nM | –
23 | CCOP(=O)(Cc1csc(NC(=O)c2ccc3c(c2)OCCO3)n1)OCC [Example 79] | – | Emax (human glucokinase (GK)): 133%
24 | COC[C@H](C)Oc1cc(Oc2ccc(S(C)(=O)=O)cc2)cc(C(=O)Nc2nc(CP3(=O)OCCCO3)cs2)c1 [Example 169] | 9 nM | –
25 | CCOP(=O)(Cc1csc(NC(=O)c2cc(OC(C)C)cc(O[C@H]3CCN(C(C)=O)C3)c2)n1)OCC [Example 112] | 428 nM | –
26 | CCOP(=O)(Cc1csc(NC(=O)c2nn(CC3CC3)c3cc(S(C)(=O)=O)ccc23)n1)OCC [Example 86] | – | Emax (human glucokinase (GK)): 141%
27 | CCOP(=O)(Cc1csc(NC(=O)c2cc(OCC(F)(F)c3ccccc3)cc(OC(C)C)c2)n1)OCC [Example 123] | – | Emax (human glucokinase (GK)): 135%
28 | CCOP(=O)(Cc1csc(NC(=O)c2cc(OC(C)C)cc(OC(C)C)c2)n1)OCC [Example 148] | 178 nM | Reduction in Glucose AUC at 30 mg/kg dose [1]: 60%
